Laboratory results from publication PMC3525726 (Cancer research, 2012).

Key:
Type in all cases: biochemical
ABCC10 (MRP7) [1] = target: T1, ABCC10 (MRP7) (Homo sapiens, UniProt Q5T3U5); test: Pi release ATPase inhibition assay; details: 5 mM ATP, Mg2+, pH 7.5, 37 °C; crude membranes
T1 sequence (Q5T3U5 1-1492): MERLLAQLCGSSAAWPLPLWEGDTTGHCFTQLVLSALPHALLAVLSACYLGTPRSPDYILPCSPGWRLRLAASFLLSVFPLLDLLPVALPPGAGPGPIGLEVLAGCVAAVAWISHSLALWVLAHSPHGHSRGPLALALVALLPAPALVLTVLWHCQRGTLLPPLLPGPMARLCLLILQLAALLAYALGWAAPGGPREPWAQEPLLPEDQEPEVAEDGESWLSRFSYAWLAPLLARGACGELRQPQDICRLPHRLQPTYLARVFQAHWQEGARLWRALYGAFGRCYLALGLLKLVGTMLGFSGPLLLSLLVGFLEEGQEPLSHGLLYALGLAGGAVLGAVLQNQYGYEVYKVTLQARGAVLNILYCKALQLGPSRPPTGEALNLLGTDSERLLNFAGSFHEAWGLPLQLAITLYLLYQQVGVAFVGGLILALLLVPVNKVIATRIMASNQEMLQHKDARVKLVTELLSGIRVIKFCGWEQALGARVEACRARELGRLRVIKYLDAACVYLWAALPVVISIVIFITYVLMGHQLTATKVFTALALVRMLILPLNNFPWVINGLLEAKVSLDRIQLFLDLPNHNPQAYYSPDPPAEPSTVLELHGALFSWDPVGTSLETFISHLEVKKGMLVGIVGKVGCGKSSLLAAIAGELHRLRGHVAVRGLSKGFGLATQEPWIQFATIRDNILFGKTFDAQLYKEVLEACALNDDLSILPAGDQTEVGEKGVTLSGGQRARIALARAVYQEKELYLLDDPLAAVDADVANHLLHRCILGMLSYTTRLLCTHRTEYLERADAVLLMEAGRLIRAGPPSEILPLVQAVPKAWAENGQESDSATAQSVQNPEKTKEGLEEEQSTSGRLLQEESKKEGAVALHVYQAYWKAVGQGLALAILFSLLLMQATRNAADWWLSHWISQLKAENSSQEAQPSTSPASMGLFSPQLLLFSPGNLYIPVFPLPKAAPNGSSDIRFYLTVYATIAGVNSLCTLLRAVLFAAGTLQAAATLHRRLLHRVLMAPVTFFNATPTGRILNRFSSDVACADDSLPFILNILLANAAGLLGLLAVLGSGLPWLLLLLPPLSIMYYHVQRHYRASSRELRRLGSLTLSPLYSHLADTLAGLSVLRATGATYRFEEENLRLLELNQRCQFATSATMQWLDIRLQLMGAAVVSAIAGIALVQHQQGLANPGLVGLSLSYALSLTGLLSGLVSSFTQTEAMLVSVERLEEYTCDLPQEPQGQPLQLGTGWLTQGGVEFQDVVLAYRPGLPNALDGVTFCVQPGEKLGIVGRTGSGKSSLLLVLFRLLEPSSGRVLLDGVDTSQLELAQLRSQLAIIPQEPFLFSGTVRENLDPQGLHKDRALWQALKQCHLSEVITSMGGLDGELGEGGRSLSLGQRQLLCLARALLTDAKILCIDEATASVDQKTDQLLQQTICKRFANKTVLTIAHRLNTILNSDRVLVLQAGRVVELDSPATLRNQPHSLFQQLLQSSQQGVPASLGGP

ABCC10 (MRP7) [2] = target: T1, ABCC10 (MRP7); test: Pi release ATPase inhibition assay; details: read-out: % inhibition at 0.625 μM
ABCC10 (MRP7) [3] = target: T1, ABCC10 (MRP7); test: Pi release ATPase stimulation assay; details: 5 mM ATP, Mg2+, pH 7.5, 37 °C; crude membranes
ABCC10 (MRP7) [4] = target: T1, ABCC10 (MRP7); test: Pi release ATPase stimulation assay; details: 5 mM ATP, Mg2+, pH 7.5, 37 °C; crude membranes; remark: listed apart in the source
ABCC10 (MRP7) [5] = target: T1, ABCC10 (MRP7); test: Pi release ATPase stimulation assay; details: 5 mM ATP, Mg2+, pH 7.5, 37 °C; crude membranes; remark: listed apart in the source

## CNC(=O)c1cc(Oc2ccc(NC(=O)Nc3ccc(Cl)c(C(F)(F)F)c3)cc2)ccn1 [sorafenib]
ABCC10 (MRP7) [1]
  % inhibition at 5 μM: cepharanthine, sorafenib, imatinib, nilotinib, erlotinib and lapatinib were effective inhibitors of ABCC10 ATPase activity

## Cc1cn(-c2cc(NC(=O)c3ccc(C)c(Nc4nccc(-c5cccnc5)n4)c3)cc(C(F)(F)F)c2)cn1 [nilotinib]
ABCC10 (MRP7) [2]
  inhibition at 0.625 µM: 41.4%

## C[C@]12CC[C@@H]3c4ccc(O)cc4CC[C@H]3[C@@H]1CC[C@@H]2O[C@@H]1O[C@H](C(=O)O)[C@@H](O)[C@H](O)[C@H]1O [E217βG]
ABCC10 (MRP7) [3]
  % stimulation of ATPase activity: 30%

## CC(=O)O[C@@]12CO[C@@H]1C[C@H](O)[C@@]1(C)C(=O)[C@H](O)C3=C(C)[C@@H](OC(=O)[C@H](O)[C@@H](NC(=O)OC(C)(C)C)c4ccccc4)C[C@@](O)([C@@H](OC(=O)c4ccccc4)[C@H]21)C3(C)C [docetaxel]
ABCC10 (MRP7) [4]
  % stimulation of ATPase activity at 5 μM: 24.38%

## C#Cc1cccc(Nc2ncnc3cc(OCCOC)c(OCCOC)cc23)c1 [erlotinib]
ABCC10 (MRP7) [2]
  inhibition at 0.625 µM: 47%

## Nc1ccn([C@@H]2O[C@H](CO)[C@@H](O)[C@@H]2O)c(=O)n1 [Ara-C]
ABCC10 (MRP7) [5]
  % stimulation of ATPase activity at 0.625 μM: 31.8%

## CC(=O)O[C@H]1C(=O)[C@@]2(C)[C@H]([C@H](OC(=O)c3ccccc3)[C@]3(O)C[C@H](OC(=O)[C@H](O)[C@@H](NC(=O)c4ccccc4)c4ccccc4)C(C)=C1C3(C)C)[C@]1(OC(C)=O)CO[C@@H]1C[C@@H]2O [paclitaxel]
ABCC10 (MRP7) [4]
  % stimulation of ATPase activity at 5 μM: 15%

## Cc1ccc(NC(=O)c2ccc(CN3CCN(C)CC3)cc2)cc1Nc1nccc(-c2cccnc2)n1 [imatinib]
ABCC10 (MRP7) [1]
  % inhibition at 5 μM: cepharanthine, sorafenib, imatinib, nilotinib, erlotinib and lapatinib were effective inhibitors of ABCC10 ATPase activity
